Test system: 496974-208-R-J2-PDC complex spheroids, growth % test/control
Experiment: Anticancer human tumor 496974-208-R-J2-PDC patient-derived pancreatic carcinoma cell line growth inhibition [CLK]
Details: for IC50: curve of first compound; for viability, T/C: stronger effect = lower value; active = viability on the fitted dose curve at most 10% of control; inactive = the rest
In short: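 Multi-cell-type spheroids combined patient-derived tumor cells with HUVEC endothelial cells and human mesenchymal stem cells. Paired agents were dosed in half-log steps down from about clinical Cmax, or from 10 microM where Cmax was unknown.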

[1] = second compound 0.0316 µM, first compound 0.0316 µM
[2] = second compound 0.0316 µM, first compound 0.1 µM
[3] = second compound 0.0316 µM, first compound 0.316 µM
[4] = second compound 0.0316 µM, first compound 1 µM
[5] = second compound 0.1 µM, first compound 0.0316 µM
[6] = second compound 0.1 µM, first compound 0.1 µM
[7] = second compound 0.1 µM, first compound 0.316 µM
[8] = second compound 0.1 µM, first compound 1 µM
[9] = second compound 0.316 µM, first compound 0.0316 µM
[10] = second compound 0.316 µM, first compound 0.1 µM
[11] = second compound 0.316 µM, first compound 0.316 µM
[12] = second compound 0.316 µM, first compound 1 µM
[13] = second compound 1 µM, first compound 0.0316 µM
[14] = second compound 1 µM, first compound 0.1 µM
[15] = second compound 1 µM, first compound 0.316 µM
[16] = second compound 1 µM, first compound 1 µM
[17] = second compound 3.16 µM, first compound 0.0316 µM
[18] = second compound 3.16 µM, first compound 0.1 µM
[19] = second compound 3.16 µM, first compound 0.316 µM
[20] = second compound 3.16 µM, first compound 1 µM
[21] = second compound 10 µM, first compound 0.0316 µM
[22] = second compound 10 µM, first compound 0.1 µM
[23] = second compound 10 µM, first compound 0.316 µM
[24] = second compound 10 µM, first compound 1 µM
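Note: spheroids exposed to the drugs for 7 days before readout.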
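Throughout, for viability, T/C: 100% = DMSO vehicle control wells.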

NC(=O)C(=Cn1cnc(-c2cc(C(F)(F)F)cc(C(F)(F)F)c2)n1)c1cncnc1 + CN1CCN(c2cc(C(=O)Nc3cc4cc(-c5cnn(C)c5)ccc4cn3)ccn2)CC1
inactive: viability, T/C (second compound 0.0316 µM, first compound 0.00949 µM) 90.6% | viability, T/C (second compound 0.0316 µM, first compound 0.03 µM) 67.2% | viability, T/C (second compound 0.0316 µM, first compound 0.0949 µM) 52.1% | viability, T/C (second compound 0.0316 µM, first compound 0.3 µM) 21.3% | viability, T/C (second compound 0.0316 µM, first compound 0.949 µM) 16.9% | viability, T/C (second compound 0.0316 µM, first compound 3 µM) 11.8% | viability, T/C (second compound 0.1 µM, first compound 0.00949 µM) 61.6% | viability, T/C (second compound 0.1 µM, first compound 0.03 µM) 56.5% | viability, T/C (second compound 0.1 µM, first compound 0.0949 µM) 35.2% | viability, T/C (second compound 0.1 µM, first compound 0.3 µM) 12.4%
< 9.49 nM: IC50 (second compound 0.316 µM) | IC50 (second compound 1 µM) | IC50 (second compound 3.16 µM) | IC50 (second compound 10 µM)
80.4 nM: IC50 (second compound 0.0316 µM)
active: viability, T/C (second compound 0.1 µM, first compound 0.949 µM) 7.44% | viability, T/C (second compound 0.1 µM, first compound 3 µM) 2.92% | viability, T/C (second compound 0.316 µM, first compound 0.00949 µM) 2.46% | viability, T/C (second compound 0.316 µM, first compound 0.03 µM) 1.91% | viability, T/C (second compound 0.316 µM, first compound 0.0949 µM) 3.26% | viability, T/C (second compound 0.316 µM, first compound 0.3 µM) 0.41% | viability, T/C (second compound 0.316 µM, first compound 0.949 µM) 0.31% | viability, T/C (second compound 0.316 µM, first compound 3 µM) 0.19% | viability, T/C (second compound 1 µM, first compound 0.00949 µM) 0.39% | viability, T/C (second compound 1 µM, first compound 0.03 µM) 0.4% | viability, T/C (second compound 1 µM, first compound 0.0949 µM) 0.64% | viability, T/C (second compound 1 µM, first compound 0.3 µM) 0.44% | viability, T/C (second compound 1 µM, first compound 0.949 µM) 2.17% | viability, T/C (second compound 1 µM, first compound 3 µM) 0.11% | viability, T/C (second compound 3.16 µM, first compound 0.00949 µM) 0.34% | viability, T/C (second compound 3.16 µM, first compound 0.03 µM) 0.4% | viability, T/C (second compound 3.16 µM, first compound 0.0949 µM) 0.41% | viability, T/C (second compound 3.16 µM, first compound 0.3 µM) 0.37% | viability, T/C (second compound 3.16 µM, first compound 0.949 µM) 0.26% | viability, T/C (second compound 3.16 µM, first compound 3 µM) 0.13% | viability, T/C (second compound 10 µM, first compound 0.00949 µM) 0.25% | viability, T/C (second compound 10 µM, first compound 0.03 µM) 0.23% | viability, T/C (second compound 10 µM, first compound 0.0949 µM) 1.86% | viability, T/C (second compound 10 µM, first compound 0.3 µM) 0.31% | viability, T/C (second compound 10 µM, first compound 0.949 µM) 0.24% | viability, T/C (second compound 10 µM, first compound 3 µM) 0.69%
42 nM: IC50 (second compound 0.1 µM)

COc1c(OCCCN2CCOCC2)ccc2c3n(c(=NC(=O)c4cnc(N)nc4)nc12)CCN3 + CN1CCN(c2cc(C(=O)Nc3cc4cc(-c5cnn(C)c5)ccc4cn3)ccn2)CC1
15.8 nM: IC50 (second compound 0.0316 µM)
< 3.16 nM: IC50 (second compound 0.316 µM) | IC50 (second compound 1 µM) | IC50 (second compound 3.16 µM) | IC50 (second compound 10 µM)
active: viability, T/C [3] 7% | viability, T/C [4] 4.1% | viability, T/C [6] 11.5% | viability, T/C [7] 8.48% | viability, T/C [8] 3.16% | viability, T/C (second compound 0.316 µM, first compound 0.00316 µM) 5.23% | viability, T/C (second compound 0.316 µM, first compound 0.01 µM) 3.99% | viability, T/C [9] 2.13% | viability, T/C [10] 1.22% | viability, T/C [11] 0.53% | viability, T/C [12] 0.56% | viability, T/C (second compound 1 µM, first compound 0.00316 µM) 0.41% | viability, T/C (second compound 1 µM, first compound 0.01 µM) 0.62% | viability, T/C [13] 1.84% | viability, T/C [14] 0.29% | viability, T/C [15] 0.49% | viability, T/C [16] 1.95% | viability, T/C (second compound 3.16 µM, first compound 0.00316 µM) 0.35% | viability, T/C (second compound 3.16 µM, first compound 0.01 µM) 1.42% | viability, T/C [17] 0.35% | viability, T/C [18] 0.45% | viability, T/C [19] 1.33% | viability, T/C [20] 0.46% | viability, T/C (second compound 10 µM, first compound 0.00316 µM) 0.26% | viability, T/C (second compound 10 µM, first compound 0.01 µM) 0.83% | viability, T/C [21] 0.25% | viability, T/C [22] 0.19% | viability, T/C [23] 0.4% | viability, T/C [24] 1.34%
13.3 nM: IC50 (second compound 0.1 µM)
inactive: viability, T/C (second compound 0.0316 µM, first compound 0.00316 µM) 84.8% | viability, T/C (second compound 0.0316 µM, first compound 0.01 µM) 61.2% | viability, T/C [1] 33.2% | viability, T/C [2] 14.5% | viability, T/C (second compound 0.1 µM, first compound 0.00316 µM) 65.5% | viability, T/C (second compound 0.1 µM, first compound 0.01 µM) 58.2% | viability, T/C [5] 27.1%

COC1C=CCC(C)C(C)S(=O)(=O)NC(=O)c2ccc3c(c2)N(CC2CCC21)CC1(CCCc2cc(Cl)ccc21)CO3 (stereo unspecified) + CN1CCN(c2cc(C(=O)Nc3cc4cc(-c5cnn(C)c5)ccc4cn3)ccn2)CC1
< 31.6 nM: IC50 (second compound 0.316 µM) | IC50 (second compound 1 µM) | IC50 (second compound 3.16 µM) | IC50 (second compound 10 µM)
6730 nM: IC50 (second compound 0.1 µM)
9900 nM: IC50 (second compound 0.0316 µM)
active: viability, T/C [9] 6.55% | viability, T/C [10] 6.86% | viability, T/C [11] 6.27% | viability, T/C [12] 5.01% | viability, T/C (second compound 0.316 µM, first compound 3.16 µM) 6.46% | viability, T/C (second compound 0.316 µM, first compound 10 µM) 9.02% | viability, T/C [13] 0.46% | viability, T/C [14] 2.1% | viability, T/C [15] 1.64% | viability, T/C [16] 0.36% | viability, T/C (second compound 1 µM, first compound 3.16 µM) 0.6% | viability, T/C (second compound 1 µM, first compound 10 µM) 2.57% | viability, T/C [17] 0.56% | viability, T/C [18] 1.19% | viability, T/C [19] 0.48% | viability, T/C [20] 0.35% | viability, T/C (second compound 3.16 µM, first compound 3.16 µM) 3.56% | viability, T/C (second compound 3.16 µM, first compound 10 µM) 1.06% | viability, T/C [21] 1.5% | viability, T/C [22] 0.48% | viability, T/C [23] 0.41% | viability, T/C [24] 0.29% | viability, T/C (second compound 10 µM, first compound 3.16 µM) 3.22% | viability, T/C (second compound 10 µM, first compound 10 µM) 0.75%
inactive: viability, T/C [1] 93.4% | viability, T/C [2] 87.3% | viability, T/C [3] 86.7% | viability, T/C [4] 76.2% | viability, T/C (second compound 0.0316 µM, first compound 3.16 µM) 76.1% | viability, T/C (second compound 0.0316 µM, first compound 10 µM) 48.3% | viability, T/C [5] 79.9% | viability, T/C [6] 78.4% | viability, T/C [7] 75.4% | viability, T/C [8] 69.1% | viability, T/C (second compound 0.1 µM, first compound 3.16 µM) 66.3% | viability, T/C (second compound 0.1 µM, first compound 10 µM) 42%

Reference: PubChem BioAssay AID2060615 (Molecular Pharmacology Branch, DTP, NCI, 2025)
